{"source": "patent US5116857A", "about": "“Method of increasing gastrointestinal motility with substituted benzamides” (Laboratoires Delagrange Div. Societe d'Applications …, priority 1988, dated 1992)", "key": {"guinea-pigs": {"tested_on": "guinea-pigs", "assay": "Gastric emptying measured by x-ray localization of barium sulfate spheroids in guinea pigs after i.p. administration", "assay_type": "in vivo, guinea pig", "conditions": "for Gastric emptying (percentage of spheroids leaving the stomach) after 1 hour / Gastric emptying (percentage of spheroids leaving the stomach) after 2 hours: 1 mg/kg i.p.; for Gastric emptying (percentage of spheroids leaving the stomach) after 1 hour / Gastric emptying (percentage of spheroids leaving the stomach) after 2 hours / Gastric emptying after 2 hours: guinea-pigs; for Gastric emptying (percentage of spheroids leaving the stomach) after 2 hours: control group 28%; for Gastric emptying after 2 hours: 5 mg/kg, control group 24.8%; for Gastric emptying at 1 mg/kg compared with metoclopramide 5 mg/kg: 1 mg/kg of compound vs 5 mg/kg of metoclopramide", "method": "Feeding of the animals were interrupted 14 hours before measurement of gastric emptying. The experimentation was conducted under weak illumination, with the least possible noise and disturbances, solely by experimentors having daily contact with the guinea pigs and having sufficient initial training in handling the animals. The animals were then subjected to minimal stress.\nThe measurement of gastric emptying was carried out by x-ray localization (50 KV, 30 mA, 0.5-0.8 s.), on Kodak plates (NS-2T, 13×18 cm) of barium sulfate spheroids (approximately 30, 1 mm in diameter) coated with polystyrene, which the guinea pigs were made to swallow by placing them in the back of the throat, in a solution of 0.2 ml of 1% carboxymethylcellulose with 0.05 ml of glycerine, so as to initiate rapid and voluntary deglutition.\nThe passage of the spheroids was followed for 3 to 4 hours, the animals being placed in their customary cages for that time and taken out only 5 minutes before x-ray exposure (at intervals of 30-60 minutes). During the x-ray procedure, the animals were placed in individual holding cages, keeping them comfortably in a stable position, the cage being sufficiently sized (33×15 cm and 13 cm high) so as to comfortably maintain a 450 to 550 gram guinea pig between the padded walls, the animal being trained to enter the cage and remain there tranquilly and without stress.\nGastric emptying was measured by the number of spheroids leaving the stomach. For each dose of product studied, 6 guinea pigs were used, and the responses were compared to those of guinea pigs receiving the appropriate vehicle.\nCompound (I) was studied at doses of 1 mg/kg and 0.01 mg/kg, Compounds (II) to (V) were studied at a dose of 1 mg/kg, the compounds (VI) to (VIII) at a dose of 5 mg/kg. Metoclopramide was evaluated at doses of 1 mg/kg and 5 mg/kg.\nThe results are recorded in graphic form in FIG. 1. The compounds according to the invention and metoclopromide were dissolved in distilled water and the doses are expressed as base.\nThis emptying is expressed, in FIG. 1 and Table 1, as a percentage of spheroids leaving the stomach."}, "[1]": {"assay": "Acute toxicity, intravenous, male mice", "conditions": "mouse, in vivo, read-out: LD50 (median lethal dose)", "source_text": "The acute toxicity of the compounds of the invention administered intravenously was studied in male mice."}}, "data": [{"smiles": "CCN(CC)CCNC(=O)c1cc(Cl)c(NC2=NCCO2)cc1OC", "note": "[Compound III, N-[2-(diethylamino)ethyl]-2-methoxy-4-[(4,5-dihydro-2-oxazolyl)amino]-5-chlorobenzamide]", "values": [{"measurement": "Gastric emptying (percentage of spheroids leaving the stomach) after 1 hour", "setting": "guinea-pigs", "result": 20, "unit": "%"}, {"measurement": "Gastric emptying (percentage of spheroids leaving the stomach) after 2 hours", "setting": "guinea-pigs", "result": 57, "unit": "%"}, {"measurement": "LD50", "setting": "[1]", "result": "91 to 116", "unit": "mg/kg"}]}, {"smiles": "CCN(CC)CCNC(=O)c1cc(Cl)c(N)cc1OC", "note": "[metoclopramide, N-(2-diethylaminoethyl)-2-methoxy-4-amino-5-chlorobenzamide, reference compound]", "values": [{"measurement": "Gastric emptying (percentage of spheroids leaving the stomach) after 1 hour", "setting": "guinea-pigs", "result": 16, "unit": "%"}, {"measurement": "Gastric emptying (percentage of spheroids leaving the stomach) after 2 hours", "setting": "guinea-pigs", "result": 39, "unit": "%"}, {"measurement": "Effect on gastric emptying (in words)", "setting": "guinea-pigs; intraperitoneal, immobilized guinea-pigs, FIG. 1", "result": "an increase in gastric emptying"}, {"measurement": "LD50", "setting": "[1]", "result": "25.4 to 37.9", "unit": "mg/kg"}]}, {"smiles": "CCN(CC)CCNC(=O)c1cc(Cl)c(NC2=NCCS2)cc1OC", "note": "[Compound II, N-[2-(diethylamino)ethyl]-2-methoxy-4-[(4,5-dihydro-2-thiazolyl)amino]-5-chlorobenzamide]", "values": [{"measurement": "Gastric emptying (percentage of spheroids leaving the stomach) after 1 hour", "setting": "guinea-pigs", "result": 12.5, "unit": "%"}, {"measurement": "Gastric emptying (percentage of spheroids leaving the stomach) after 2 hours", "setting": "guinea-pigs", "result": 60, "unit": "%"}, {"measurement": "LD50", "setting": "[1]", "result": "40.6 to 48.7", "unit": "mg/kg"}]}, {"smiles": "C=CCNC(=O)c1cc(Cl)c(NC2=NCCN2)cc1OC", "note": "[Compound VIII, N-allyl-2-methoxy-4-[(4,5-dihydro-1H-imidazol-2-yl)amino]-5-chlorobenzamide]", "values": [{"measurement": "Gastric emptying after 2 hours", "setting": "guinea-pigs", "result": 47.4, "unit": "%"}]}, {"smiles": "CCN(CC)CCNC(=O)c1cc(Cl)c(NC2=NCCN2)cc1OC", "note": "[Compound I, N-[2-(diethylamino)ethyl]-2-methoxy-4-[(4,5-dihydro-1H-imidazol-2-yl)-amino]-5-chlorobenzamide]", "values": [{"measurement": "Gastric emptying (percentage of spheroids leaving the stomach) after 1 hour", "setting": "guinea-pigs", "result": 24, "unit": "%"}, {"measurement": "Gastric emptying (percentage of spheroids leaving the stomach) after 2 hours", "setting": "guinea-pigs", "result": 63, "unit": "%"}, {"measurement": "Gastric emptying at 1 mg/kg compared with metoclopramide 5 mg/kg", "setting": "guinea-pigs", "result": "a result equivalent to the use of 5 mg/kg of metoclopramide"}, {"measurement": "LD50", "setting": "[1]", "result": "12.8 to 14.4", "unit": "mg/kg"}]}, {"smiles": "CCN(CC)CCNC(=O)c1cc(Cl)c(NC2=NCCN2)cc1O", "note": "[Compound V, N-[2-(diethylamino)ethyl]-2-hydroxy-4-[(4,5-dihydro-1H-imidazol-2-yl)-amino]-5-chlorobenzamide]", "values": [{"measurement": "Gastric emptying (percentage of spheroids leaving the stomach) after 1 hour", "setting": "guinea-pigs", "result": 32, "unit": "%"}, {"measurement": "Gastric emptying (percentage of spheroids leaving the stomach) after 2 hours", "setting": "guinea-pigs", "result": 55, "unit": "%"}, {"measurement": "LD50", "setting": "[1]", "result": "65.7 to 76.7", "unit": "mg/kg"}]}, {"smiles": "CNC(=O)c1cc(Cl)c(NC2=NCCN2)cc1OC", "note": "[Compound IV, N-methyl-2-methoxy-4-[(4,5-dihydro-1H-imidazol-2-yl)amino] -5-chlorobenzamide]", "values": [{"measurement": "Gastric emptying (percentage of spheroids leaving the stomach) after 1 hour", "setting": "guinea-pigs", "result": 38, "unit": "%"}, {"measurement": "Gastric emptying (percentage of spheroids leaving the stomach) after 2 hours", "setting": "guinea-pigs", "result": 62, "unit": "%"}, {"measurement": "Gastric emptying at 1 mg/kg compared with metoclopramide 5 mg/kg", "setting": "guinea-pigs", "result": "a result equivalent to the use of 5 mg/kg of metoclopramide"}, {"measurement": "LD50", "setting": "[1]", "result": "95.8 to 138", "unit": "mg/kg"}]}, {"smiles": "COc1cc(NC2=NCCN2)c(Cl)cc1C(=O)NC(C)C", "note": "[Compound VII, N-isopropyl-2-methoxy-4-[(4,5-dihydro-1H-imidazol-2-yl)amino]-5-chlorobenzamide]", "values": [{"measurement": "Gastric emptying after 2 hours", "setting": "guinea-pigs", "result": 46.2, "unit": "%"}]}]}
